Measurements taken from patent US9446091B2, “Caspofungin or salts thereof with high purity, as well as preparation method and use thereof” (Shanghai Techwell Biopharmaceutical Co., Ltd., priority 2011, dated 2016).

Assay: Study on the stability of caspofungin with low solvent residue and hyposaline (storage, then HPLC purity)
Assay type: physicochemical
Details: for Purity: HPLC purity after storing at −25~−20° C. for 30 days; for Initial purity: HPLC purity before storage; for stability of the samples (degradation by HPLC analysis): stored at −25-20° C. for 30 days
Description: In the present invention, HPLC is used to determine the purity of caspofungin or salts thereof (the compound of formula 1 or salts thereof), and to investigate the stability of sample. Said HPLC is described as follows:
Chromatographic column: 4.6×250 mm, 5 μm C18 column;
Mobile phase: A: 0.1% aqueous perchloric acid and 0.075% aqueous sodium chloride; B: acetonitrile;
Flow rate: 1.0 ml/min; Injection volume: 10 μL;
Column temperature: 35° C.±5° C.; Detection wavelength: 220 nm; Running time: 60 mins;
Retention time of major peak: about 27 min;
The samples prepared in the above example 3, example 4, example 5, example 6, example 7, example 8 and example 9 were stored at −25-20° C. for 30 days. And then HPLC analysis was applied on these samples.

Row | Purity [%] | Initial purity [%] | stability of the samples (degradation by HPLC analysis) | SMILES
1 | 99.88 | 99.88 | no degradation occured | CCC(C)CC(C)CCCCCCCCC(=O)N[C@H]1C[C@@H](O)[C@@H](NCCN)NC(=O)[C@@H]2[C@@H](O)CCN2C(=O)[C@H]([C@H](O)CCN)NC(=O)[C@H]([C@H](O)[C@@H](O)c2ccc(O)cc2)NC(=O)[C@@H]2C[C@@H](O)CN2C(=O)[C@H]([C@@H](C)O)NC1=O (single isomer, unassigned) [Example 8, caspofungin diacetate]
2 | 99.86 | 99.86 | no degradation occured | CCC(C)CC(C)CCCCCCCCC(=O)N[C@H]1C[C@@H](O)[C@@H](NCCN)NC(=O)[C@@H]2[C@@H](O)CCN2C(=O)[C@H]([C@H](O)CCN)NC(=O)[C@H]([C@H](O)[C@@H](O)c2ccc(O)cc2)NC(=O)[C@@H]2C[C@@H](O)CN2C(=O)[C@H]([C@@H](C)O)NC1=O (single isomer, unassigned) [Example 9, caspofungin diacetate]
3 | 99.90 | 99.90 | no degradation occured | CCC(C)CC(C)CCCCCCCCC(=O)N[C@H]1C[C@@H](O)[C@@H](NCCN)NC(=O)[C@@H]2[C@@H](O)CCN2C(=O)[C@H]([C@H](O)CCN)NC(=O)[C@H]([C@H](O)[C@@H](O)c2ccc(O)cc2)NC(=O)[C@@H]2C[C@@H](O)CN2C(=O)[C@H]([C@@H](C)O)NC1=O (single isomer, unassigned) [Example 7, caspofungin diacetate]
4 | 99.90 | 99.90 | no degradation occured | CCC(C)CC(C)CCCCCCCCC(=O)N[C@H]1C[C@@H](O)[C@@H](NCCN)NC(=O)[C@@H]2[C@@H](O)CCN2C(=O)[C@H]([C@H](O)CCN)NC(=O)[C@H]([C@H](O)[C@@H](O)c2ccc(O)cc2)NC(=O)[C@@H]2C[C@@H](O)CN2C(=O)[C@H]([C@@H](C)O)NC1=O (single isomer, unassigned) [Example 4, caspofungin diacetate]

More lines, now with the values behind:

Row | SMILES | Purity [%] | Initial purity [%] | stability of the samples (degradation by HPLC analysis)
5 | CCC(C)CC(C)CCCCCCCCC(=O)N[C@H]1C[C@@H](O)[C@@H](NCCN)NC(=O)[C@@H]2[C@@H](O)CCN2C(=O)[C@H]([C@H](O)CCN)NC(=O)[C@H]([C@H](O)[C@@H](O)c2ccc(O)cc2)NC(=O)[C@@H]2C[C@@H](O)CN2C(=O)[C@H]([C@@H](C)O)NC1=O (single isomer, unassigned) [Example 3, caspofungin diacetate] | 99.90 | 99.90 | no degradation occured
6 | CCC(C)CC(C)CCCCCCCCC(=O)N[C@H]1C[C@@H](O)[C@@H](NCCN)NC(=O)[C@@H]2[C@@H](O)CCN2C(=O)[C@H]([C@H](O)CCN)NC(=O)[C@H]([C@H](O)[C@@H](O)c2ccc(O)cc2)NC(=O)[C@@H]2C[C@@H](O)CN2C(=O)[C@H]([C@@H](C)O)NC1=O (single isomer, unassigned) [Example 6, caspofungin diacetate] | 99.92 | 99.92 | no degradation occured
7 | CCC(C)CC(C)CCCCCCCCC(=O)N[C@H]1C[C@@H](O)[C@@H](NCCN)NC(=O)[C@@H]2[C@@H](O)CCN2C(=O)[C@H]([C@H](O)CCN)NC(=O)[C@H]([C@H](O)[C@@H](O)c2ccc(O)cc2)NC(=O)[C@@H]2C[C@@H](O)CN2C(=O)[C@H]([C@@H](C)O)NC1=O (single isomer, unassigned) [Example 5, caspofungin diacetate] | 99.91 | 99.91 | no degradation occured
